In brackets after ≈: the same amount, converted by molar mass.
How the values were obtained:
bone marrow stem cells = assay: bone marrow stem cell proliferation (XTT); type: cell-based, C57/BL6 mice; details: for Max amplitude: 7 days, XTT 492 nm; for Min amplitude: blank ± 3× standard deviation; for Max concentration: concentration at maximum amplitude; for EC50 conc: concentration corresponding to 50% of maximum amplitude; for Min concentration: lowest concentration inducing a significant proliferation
Source text: 6-week old male C57/BL6 mice are killed by CO2 inhalation. The hip, femur, tibia and hind leg bones are removed. The marrow is extracted from the bone lumen by injecting Dulbecco's Modified Eagle Medium (DH medium) from the end portions which had been excised. The stem cells are washed and suspended again in DH medium supplemented with 20% foetal calf serum (FCS) The cell concentration is adjusted to 500000 cells/ml.
Products previously dissolved in DH medium supplemented with 20% FCS, amino acids and antibiotics are serially diluted directly into a microtiter plate. The products are tested in triplicate and each microtiter plate includes a negative control containing plain medium. The final volume in each well is 100 μl.
100 μl of the cell suspension are added to diluted solutions of products and the cells are incubated for 7 days in an incubator at 37° C., under 8% CO2 and a moisture saturated atmosphere. Cell proliferation is determined by measuring the […] of a chromogenic substrate XTT (2,3-bis[2-methoxy-4-nitro-5-sulphophenyl]-2H-tetrazolium-5-carboxanilide) in mitochondria of viable cells.
At the end of the incubation period, 50 μl of the XTT substrate solution (1 mg/ml XTT+0.008 mg/ml phenazine methosulfate) are added to each well. After an 8 hour incubation period at 37° C. under 8% CO2 in a moisture saturated incubator, the microtiter plates are read with a spectrophotometer at 492 nm against a reference sample at 690 nm.
Results are expressed as mean value±standard deviation and plotted as a dose versus response curve. Values for a negative control composed of DH medium (mean±standard deviation) are also graphically shown.
From this dose versus response curve, 3 curve variables are computed:
Max: maximum curve amplitude and corresponding concentration
EC50: concentration corresponding to 50% of maximum amplitude
Min: lowest concentration inducing a significant proliferation corresponding to the blank±3× standard deviation value
Concentration values corresponding to EC50 and Min are determined from line segments joining different points on the curve.
If the curve has no plateau phase but an ascending configuration for the highest concentration being tested, a “>” sign is shown before Max and EC50 values.

[1] = test system: CD83, CD86 surface markers of predendritic cells (DC-6); assay: dendritic cell differentiation test: CD83, CD86 surface marker expression; type: cell-based, human; details: 10 μg/ml
Method: The ability of products of the invention to induce maturation of predendritic cells into dendritic cells was assessed. The following parameters were measured: FITC-Dextran conjugate take-up and expression of CD83, CD86 surface markers.
Mononucleated cells of peripheral blood are isolated from buffy coats of healthy donors. Purified monocytes by adherence selection are resuspended in RPMI-1640 medium containing 10% of foetal calf serum (FCS), GM-CSF and IL-4 (10 ng/ml) at a density of 1×10^6 cells/ml. Cells are divided into Petri Dishes (10×10^6 cells per dish) and cultured for 6 days with a change to fresh medium after 3 days. Cells thus obtained are called predendritic cells (DC-6). Maturation of predendritic cells into mature dendritic cells is achieved by incubating cells with diluted solutions of the products or LPS (positive control) for 3 more days (see product section below). At day 9 (DC-9), cells are harvested and analyzed for different indicators of dendritic cell maturation: assessment of CD83, CD86 surface marker expression as well as of their ability to take up FITC-Dextran conjugate. All these parameters are analyzed by an EPICS-XL-MCL model FACS (Coulter Immunology, Hialeah, […]).
Expression of surface markers is given as % of mean fluorescence of LPS-activated cells (positive control); FITC-Dextran conjugate take-up rate is calculated based on take-up of cells maintained in basic medium and is expressed in %.
Solutions are incubated at 37° C. for 20 minutes, subjected to vigorous stirring during 3 minutes and then diluted to 100 μg/ml in RPMI-1640 culture medium and used in diluted state at concentrations ranging from 10 μg/ml to 0.03 μg/ml. Reference Product: E. coli lipopolysaccharide (LPS, DIFCO, Detroit, Mich., U.S.A.), as a 5 mg/ml stock solution in PBS. An intermediate 100 μg/ml solution is prepared in RPMI 1640 culture medium. Concentrations of dilute solutions being tested range from 1 μg/ml to 0.03 μg/ml.
In another series of experiments, all acyl dipeptide-like compounds were freeze-dried and directly redissolved into pyrogen-free water. Different products as well as LPS control are tested at a concentration of 10 μg/ml. Results are given as % of dendritic cells and mean fluorescence value for dextran phagocytosis or CD86 surface marker expression.

[2] = test system: human peripheral blood mononuclear cells; assay: α TNF production by human peripheral blood mononuclear cells; type: cell-based; details: for α TNF produced: 18 hours; for α TNF production: up to 100 μg/ml
Method: Mononuclear cells of peripheral blood are recovered from buffy coats of 6 healthy donors. Such buffy coat cells are resuspended and mononuclear cells are isolated by centrifugation on a Ficoll-Paque gradient (Amersham Pharmacia). Purified mononuclear cells are resuspended into RPMI-1640 medium supplemented with 10% FCS, antibiotics, mercaptoethanol and L-glutamine. Cell concentration is adjusted to 2×10^6 viable cells/ml
100 μl of each one of these solutions of acyl dipeptide-like compounds bearing an accessory functional side chain spacer, diluted 100-, 10- or 1-fold in RPMI medium 1640, are dispensed into a microtiter plate. Samples are tested in triplicates, and each microtiter plate includes a negative control made up of plain medium. Dilutions of E. coli LPS (ranging grom 1 to 0.00001 μg/ml) are used as a positive control.
100 μl of the cell suspension are added to each well containing product dilute solutions or control. Cells are incubated with the products for 18 hours in an incubator at 37° C., under 5% CO2 and a moisture saturated atmosphere.
At the end of the incubation period, microtiter plates are centrifuged, and the supernatant fluids are pooled and frozen at −80° C. as aliquots until time of ELISA assay.
Concentration of α TNF secreted by mononuclear cells is determined by chemiluminescent ELISA (QuantiGlo #QTAOO R&D kit). 4-fold supernatant fluid dilutions are dispensed into each well of the microtiter plate to which anti-αTNF antibodies are bound. The microtiter plate is incubated for 4 hours at room temperature. After washing, peroxidase-conjugated anti-human a TNF antibody is added. Following a 2 hour incubation period and thorough washing, a chemiluminescent substrate is added and chemilunescence is read after 20 minutes. α TNF content in the supernatant fluid is determined with respect to a standard curve covering the 7000 to 0.7 pg/ml range.
Results are expressed in pg/ml of α TNF produced. Results derive from an experiment representative of acyl-dipeptide-like compound activity

| SMILES | Max amplitude (bone marrow stem cells) | Min amplitude (bone marrow stem cells) | Max concentration (bone marrow stem cells) | EC50 conc (bone marrow stem cells) | Min concentration (bone marrow stem cells) | CD86 % CD ([1]; products redissolved in pyrogen-free water, % of dendritic cells) | CD86 Fluorescence ([1]; mean fluorescence value) | α TNF produced ([2]; product 1 μg/ml) | α TNF produced ([2]; product 10 μg/ml) | α TNF produced ([2]; product 100 μg/ml) | α TNF production [2] | concentration at which a significant α TNF production level is induced ([2]; only at this concentration) |
| --- | --- | --- | --- | --- | --- | --- | --- | --- | --- | --- | --- | --- |
| CCCCCCCCCCCC(=O)O[C@H](CCCCCCCCCCC)CC(=O)N[C@H](CC(=O)O)C(=O)NCCC[C@H](COC(=O)CCCCCNC(=O)CCC(=O)OC[C@@H]1C=C[C@H](n2cc(C)c(=O)[nH]c2=O)O1)NC(=O)C[C@H](O)CCCCCCCCCCC [OM-197-MC-AC-Succ-d4T] | 1.40 O.D | 0.80 O.D | 50 µg/mL | 25.4 µg/mL (≈ 19.7 µM) | 2.81 µg/mL | 25.9% | 2.4 | 0 pg/mL | 40 pg/mL | 52 pg/mL | – | – |
| CCCCCCCCCCCC(=O)O[C@H](CCCCCCCCCCC)CC(=O)N[C@H](CC(=O)O)C(=O)NCCC[C@H](COC(=O)CCCCCO)NC(=O)C[C@H](O)CCCCCCCCCCC [OM-197-MC-FV7, N—[(R)-3-dodecanoyloxytetradecanoylamino]-D-aspartic acid, α-N-{(4R)-5-hydroxy-4-[(R)-3-hydroxytetradecanoylamino]pentyl}amide 5-O-(6-hydroxyhexanoate)] | > 1.83 O.D | 0.80 O.D | > 100 µg/mL | > 33.1 µg/mL | 6.58 µg/mL | – | – | 0 pg/mL | 80 pg/mL | 76 pg/mL | – | – |
| CCCCCCCCCCC[C@@H](O)CC(=O)N[C@H](CCCNC(=O)[C@@H](CC(=O)O)NC(C)=O)COC(=O)CCCCCN [OM-197-N′C2-MC-AC, N-acetyl-D-aspartic acid, α-N-{(4R)-5-(6-aminohexanoyloxy)-4-[(R)-3-hydroxytetradecanoylamino]-pentyl}amide] | 0.75 O.D | 0.80/nd O.D | 1.56 µg/mL | – | – | – | – | 0 pg/mL | 0 pg/mL | 0 pg/mL | do not induce any αTNF production | – |
| CCCCCCCCCCC[C@@H](O)CC(=O)N[C@H](CCCNC(=O)[C@@H](CC(=O)O)NC(=O)C(CCCCCC)OC(=O)CCCCCCCCC)COC(=O)CCCCCN (stereo partly drawn) [OM-197-N′(C10-20C8)-MC-AC, N-(2-decanoyloxyoctanoyl)-D-aspartic acid, α-N-{(4R)-5-(6-aminohexanoyloxy)-4-[(R)-3-hydroxytetradecanoylamino]-pentyl}amide] | 0.75 O.D | 0.80/nd O.D | 6.25 µg/mL | – | – | – | – | 0 pg/mL | 0 pg/mL | 0 pg/mL | do not induce any αTNF production | – |
| CCCCCCCCCCCC(=O)O[C@H](CCCCCCCCCCC)CC(=O)N[C@H](CC(=O)O)C(=O)NCCC[C@H](COC(=O)CCCCCNC(=O)CCC(=O)O)NC(=O)C[C@H](O)CCCCCCCCCCC [OM-197-MC-AC-Succ, N—[(R)-3-dodecanoyloxytetradecanoyl]-D-aspartic acid, α-N-{(4R)-5-(6-succinylamidohexanoxyloxy)-4[(R)-3-hydroxy-tetradecanoylamino]pentyl}amide] | > 1.65 O.D | 0.80 O.D | > 100 µg/mL | 33.7 µg/mL (≈ 31.2 µM) | 2.04 µg/mL | – | – | 0 pg/mL | 32 pg/mL | 40 pg/mL | – | – |
| CCCCCCCCCCCC(=O)O[C@H](CCCCCCCCCCC)CC(=O)NC(CCOP(=O)(O)O)C(=O)NCCCC(COC(=O)CCCCCO)NC(=O)C[C@H](O)CCCCCCCCCCC (stereo partly drawn) [OM-197-FV8, 3-[(R)-3-dodecanoyloxytetradecanoylamino]-4-oxo-5-aza-9-[(R)-3-hydroxytetradecanoylamino]-decan-1,10-diol 1-dihydrogenphosphate 10-(6-hydroxyhexanoate)] | 1.07 O.D | 0.80 O.D | 25 µg/mL | 1.8 µg/mL (≈ 1.72 µM) | 1.24 µg/mL | – | – | 12 pg/mL | 100 pg/mL | 252 pg/mL | – | – |
| CCCCCCCCCCCC(=O)O[C@H](CCCCCCCCCCC)CC(=O)N[C@@H](CCOP(=O)(O)O)C(=O)NCCC[C@H](COC(=O)CCCCCO)NC(=O)C[C@H](O)CCCCCCCCCCC [OM-197-MP-AC (S, R), (3S,9R)-3-[(R)-3-dodecanoyloxytetradecanoylamino]-4-oxo-5-aza-9-[(R)-3-hydroxytetradecanoylamino]-1,10-diol 1-dihydrogenphosphate 10-(6-hydroxyhexanoate)] | 1.22 O.D | 0.80 O.D | 6.25 µg/mL | 2.62 µg/mL (≈ 2.5 µM) | 1.17 µg/mL | – | – | 488 pg/mL | 124 pg/mL | 80 pg/mL | – | – |
| CCCCCCCCCCCC(=O)O[C@H](CCCCCCCCCCC)CC(=O)N[C@H](CC(=O)O)C(=O)NCCC[C@H](COP(=O)(O)O)NC(=O)C[C@H](O)CCCCCCCCCCC [OM-197-MC-MP, N—[(R)-3-dodecanoyloxytetradecanoyl]-D-aspartic acid, α-N-{(4R)-5-dihydroxyphosphoryloxy-4-[(R)-3-hydroxytetradecanoyl-amino]pentyl}amide] | > 1.60 O.D | 0.80 O.D | > 160 µg/mL | > 6.5 µg/mL | 0.77 µg/mL | – | – | 0 pg/mL | 0 pg/mL | 72 pg/mL | – | 100 µg/mL |

From patent US8173133B2, “Acyl pseudodipeptides which carry a functionalized auxiliary arm” (OM Pharma, priority 1999, dated 2012)
